Key:
[1] = test system: Human mesenchymal stem cells (MSC); test: Plasma clotting assay with human mesenchymal stem cells; format: cell-based; details: p38 inhibitor 10 µM pre-culture 10 days; anti-TF antibody 30 minutes pre-binding; untreated cells 1042.0
Description: (§1) In the previous example, cells were stimulated overnight to produce TF by LPS induction. Inhibition of this process was achieved by addition of p38 inhibitor compound 1, evaluated by plasma clotting assay. In this example, two types of cells were pre-cultured with the p38 inhibitors compound 1 and compound 2 for 10 days to evaluate the effect of p38 MAPK inhibitors on coagulation. Cells were separately treated using a final concentration of 10 µM of each p38 inhibitor. Parallel treatments of DMSO vehicle were included as a control. Media, containing the above compounds were replenished during culture at intervals of every 2 days.
(§2) Human mesenchymal stem cells (MSC) were isolated from whole bone marrow purchased from Cambrex BioScience Walkersville, Inc. Cells were obtained from 10-ml aspirates taken from the iliac crest of normal human donors (age about 20 years). Mononuclear cells were isolated by gradient centrifugation. […]
(§3) The plasma clotting assay was performed as described in Example 1. Cells were lightly trypsinized from culture on the day of assay, washed, counted, and viability was determined before adjusting to 10^6 cells/ml in HBSS. […] Coagulation was monitored at room temperature in a kinetic plate reader using 15 second interval readings at 405 nm over 60 to 120 minutes. A final reading of T1/2 maximal clotting time was obtained for each sample condition. […]

[2] = test system: Peripheral blood mononuclear cells (PBMCs); test: Plasma clotting assay with PBMCs; format: cell-based, human; details: p38 inhibitor 10 µM pre-incubated 18 to 24 hours, anti-TF antibody added 30 minutes prior to clotting, OD405
Description: Peripheral venous blood was obtained by consent from normal, healthy volunteers and mononuclear cells were isolated using Histopaque 1077 (Sigma) density gradient centrifugation. Following three washes with RPMI (Invitrogen) supplemented with 1% fetal calf serum (FCS), cells were counted and viability was assessed using a Guava PCA-96 instrument (Guava Technologies, Hayward, CA). Cells were resuspended to 1.67 x 10^6 cells/mL in RPMI media containing 10% FCS, and 4 mL/well were added to a 6-well dish (Corning-Costar). Lipopolysaccharide (LPS) was diluted into cell cultures to a final concentration of 10 ng/ml. p38 inhibitor compound 1 was added to cell cultures at a final concentration of 10 µM. An equivalent dilution of DMSO was added to untreated cultures. The following four assay conditions were: (+) LPS (+) p38 inhibitor, (+) LPS (-) p38 inhibitor, (-) LPS (+) p38 inhibitor, and (-) LPS (-) p38 inhibitor. […]
Plasma Clotting Assay. […] Clotting was monitored at 15 second intervals for 2 hours at room temperature using a Spectra MAX 190 (Molecular Devices, Sunnyvale, CA) at a wavelength of 405 nm. […]
PBMCs ([…] in 100 µl of HBSS) were pre-incubated with 25 µl of anti-TF antibody compound 3 (10 µg/ml) for 30 minutes at room temperature in the same 96-well plate as the untreated cells above. […] CaCl2 and pooled human plasma were added and the clotting reaction was monitored as described above.

[3] = test system: J82 cells; test: Plasma clotting assay with J82 bladder carcinoma cells; format: cell-based, human; details: p38 inhibitor 10 µM pre-culture 10 days; anti-TF antibody 30 minutes pre-binding; untreated cells 155.01
Description: as §1, §2, §3

[4] = test system: isolated mouse islets; test: Plasma clotting assay with isolated mouse islets; format: cell-based, Balb/c mice; details: 10 µM p38 inhibitor, islets cultured 72 hours; 50 islets/well; vehicle control 388.6 (compound 2 experiment), 488.9 (second experiment)
Description: Pancreata were harvested from Balb/c mice via cannulation of the common bile duct and perfusion with a liberase solution (Roche). Pancreata were digested at 37°C for 15 minutes followed by discontinuous ficoll gradient centrifugation to remove acinar and ductal tissue.
Islets of similar size were collected and plated in 3 ml of islet growth medium in a 6-well culture dish (300 islets per well) with or without p38 MAPK inhibitors (10 µM compound 1 or compound 2). Vehicle control was an equivalent dilution of DMSO. Islets were cultured at 37°C in 5% CO2 for 72 hours. The three treatment conditions were: vehicle control, (+) p38 inhibitor compound 1, and (+)p38 inhibitor compound 2.
Plasma Clotting Assay. […] Clotting was monitored at 15 second intervals for 2 hours at room temperature in a Spectra MAX 190 (Molecular Devices, Sunnyvale, CA) at 405nm. Times to half maximum OD were calculated as 388.6 seconds for the vehicle control and 596.9 seconds for cells treated with p38 inhibitor compound 2. […] In a second experiment, the time to half maximum was calculated as 488.9 seconds for the vehicle control and 974.7 seconds for treated islets. […]

Which “time to half the maximum OD” value [1] does the source give for `OCCC#Cc1nc(-c2ccc(F)cc2)c(-c2ccncc2)n1CCCc1ccccc1` [compound 1, 4-[4-(4-fluorophenyl)-1-(3-phenylpropyl)-5-(4-pyridinyl)-1H-imidazol-2-yl]-3-butyn-1-ol] here?
The value was 1882.2 s.

And the “time to half the maximum OD” value ([2]; (+) LPS 10 ng/ml, (+) LPS cells without inhibitor 928.6)?
Its value is 1837.3 s.

What about the “time to half the maximum OD” value ([2]; (-) LPS, untreated cells 2946.4) of the same molecule?
Its value is 3289.0 s.

And the “times to reach ½ maximal OD” value [3]?
Its value is 160.9 s.

What about the “Times to half maximum OD” value [4] of the same molecule?
The value was 974.7 s.
